Experimental findings from patent US8357717B2, “Spiro group-containing amide compounds having bradykinin 1 receptor (B1R) activity” (Gruenenthal GmbH, priority 2009, dated 2013) are described below.

Each structure is given as a SMILES string.

Test [1] concerns the target T1, human B1R receptor (hB1R) (Homo sapiens, UniProt P46663).
T1 construct: expressed in transfected cells; host or cells: CHO K1 cells, stably transfected
T1 sequence (P46663 1-353): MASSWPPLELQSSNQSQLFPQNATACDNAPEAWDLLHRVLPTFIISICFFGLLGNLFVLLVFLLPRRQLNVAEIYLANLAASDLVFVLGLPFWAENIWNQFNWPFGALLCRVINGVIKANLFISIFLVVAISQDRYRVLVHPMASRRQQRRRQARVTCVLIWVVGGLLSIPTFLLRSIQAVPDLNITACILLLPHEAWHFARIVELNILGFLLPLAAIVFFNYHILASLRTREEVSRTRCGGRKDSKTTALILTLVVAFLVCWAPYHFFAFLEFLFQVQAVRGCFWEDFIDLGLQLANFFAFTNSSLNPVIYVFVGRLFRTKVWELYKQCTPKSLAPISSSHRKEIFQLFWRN
The test is described as follows: FLIPR Ca2+ functional study on bradykinin receptor 1, hB1R cells (CHO K1). The following applies: CHO-K1, 10 μM test substance; CHO K1 cells with human B1R; agonist Lys-Des-Arg9-bradykinin at EC80; read-out: B1R antagonism, human [10 μM] % inhibition. The format is cell-based. As for the experimental part:
(§1) The agonistic or antagonistic activity of substances can be quantified on the bradykinin receptor 1 (B1R) of the species human and rat using ectopically expressing cell lines (CHO K1 cells) and with the aid of a Ca^2+-sensitive dye (Fluo-4) using a fluorescent imaging plate reader (FLIPR). The indication in % activation is based on the Ca^2+ signal after addition of Lys-Des-Arg^9-bradykinin (0.5 nM) or Des-Arg^9-bradykinin (100 nM). Antagonists lead to suppression of the Ca^2+ influx after the addition of the agonist. % Inhibition compared with the maximum achievable inhibition is indicated.
(§2) The agonistic or antagonistic activity of substances can be determined on the bradykinin receptor 1 (B1R) of the species human and rat using the following assay. According to this assay, the Ca^2+ influx through the channel is quantified with the aid of a Ca^2+-sensitive dye (Fluo-4 type, Molecular Probes Europe BV, Leiden, Netherlands) using a Fluorescent Imaging Plate Reader (FLIPR, Molecular Devices, Sunnyvale, USA).
(§3) Chinese hamster ovary cells (CHO K1 cells) which have been stably transfected with the human B1R gene (hB1R cells) or with the B1R gene of the rat (rB1R cells) are used. For functional studies, the cells are plated out on black 96-well plates having a clear base (BD Biosciences, Heidelberg, Germany or Greiner, Frickenhausen, Germany) in a density of 20,000-35,000 cells/well. The cells are left overnight at 37° C. and with 5% CO2 in culture medium (hB1R cells: Nutrient Mixture Ham's F12, Gibco Invitrogen GmbH, Karlsruhe, Germany or DMEM, Sigma-Aldrich, Taufkirchen, Germany; rB1R cells: D-MEM/F12, Gibco Invitrogen GmbH, Karlsruhe, Germany), with 10 vol. % FBS (fetal bovine serum, Gibco Invitrogen GmbH, Karlsruhe, Germany or PAN Biotech GmbH, Aidenbach, Germany). On the following day, the cells are loaded for 60 minutes at 37° C. with 2.13 μM Fluo-4 (Molecular Probes Europe BV, Leiden, Netherlands) in HBSS buffer (Hank's buffered saline solution, Gibco Invitrogen GmbH, Karlsruhe, Germany) […] (Sigma-Aldrich, Taufkirchen, Germany) and 10 mM HEPES (Sigma-Aldrich, Taufkirchen, Germany). The plates are then washed twice with HBSS buffer, and HBSS buffer additionally containing 0.1% BSA (bovine serum albumin; Sigma-Aldrich, Taufkirchen, Germany), 5.6 mM glucose and 0.05% gelatin (Merck KGaA, Darmstadt, Germany) is added to the plates. After incubation for a further 20 minutes at room temperature, the plates are inserted into the FLIPR for Ca^2+ measurement. Alternatively, washing is carried out with buffer A (15 mM HEPES, 80 mM NaCl, 5 mM KCl, 1.2 mM CaCl2, 0.7 mM MgSO4, 2 g/l glucose, 2.5 mM probenecid) followed by loading with buffer A with added 2.5 μM Fluo-4 and 0.025% Pluronic F127 (Sigma-Aldrich, Taufkirchen, Germany). The cells are then washed twice with buffer A and incubated for 30 minutes at room temperature with buffer A additionally containing 0.05% BSA and 0.05% gelatin and are then inserted into the FLIPR for Ca^2+ measurement. The Ca^2+-dependent fluorescence is measured before and after the addition of substances (λex=488 nm, λem=540 nm). Quantification is carried out by measuring the highest fluorescence intensity (FC, fluorescence counts) over time.
(§4) The FLIPR protocol consists of two substance additions. Test substances (10 μM) are first pipetted onto the cells and the Ca^2+ influx is compared with the control (hB1R: Lys-Des-Arg^9-bradykinin >=50 nM; rB1R: Des-Arg^9-bradykinin 10 μM). This gives the activation in %, based on the Ca^2+ signal after addition of Lys-Des-Arg^9-bradykinin (>=50 nM) or Des-Arg^9-bradykinin (10 μM). After 10-20 minutes' incubation, Lys-Des-Arg^9-bradykinin (hB1R) or Des-Arg^9-bradykinin (rB1R) is applied in the concentration of the EC80, and the influx of Ca^2+ is likewise determined. Antagonists lead to suppression of the Ca^2+ influx. The % inhibition compared with the maximum achievable inhibition is calculated. […]

Test [2] concerns the target T2, B1R receptor of the rat (rB1R) (Rattus norvegicus, UniProt P97583).
T2 construct: expressed in transfected cells; host or cells: CHO K1 cells, stably transfected
T2 sequence (P97583 1-337): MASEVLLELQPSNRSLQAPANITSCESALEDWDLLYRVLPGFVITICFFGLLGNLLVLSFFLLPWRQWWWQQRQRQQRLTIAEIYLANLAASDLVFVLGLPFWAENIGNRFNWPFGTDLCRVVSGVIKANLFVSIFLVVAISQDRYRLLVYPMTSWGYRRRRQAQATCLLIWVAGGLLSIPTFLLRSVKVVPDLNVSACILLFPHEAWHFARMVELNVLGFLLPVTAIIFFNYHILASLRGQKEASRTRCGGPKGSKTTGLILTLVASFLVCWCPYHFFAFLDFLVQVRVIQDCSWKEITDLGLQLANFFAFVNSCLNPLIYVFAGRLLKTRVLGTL
In words: FLIPR Ca2+ functional study on bradykinin receptor 1, rB1R cells (CHO K1). Format: cell-based. The following applies: 10 μM test substance; CHO K1 cells with rat B1R; agonist Des-Arg9-bradykinin at EC80; read-out: B1R antagonism, rat [10 μM] % inhibition. As for the experimental part:
as §1, §2, §3, §4

What is called inhibition is the drop in the measured response relative to a control, in per cent. For `O=C(/C=C/c1ccccc1Cl)N1CCc2ccc(C(=O)N3CCC4(CC3)CCN(c3ccncc3)CC4)cc2C1` [Compound G-41, 3-(2-Chlorophenyl)-1-(7-(9-(pyridin-4-yl)-3,9-diazaspiro[5.5]undecane-3-carbonyl)-3,4-dihydroisoquinolin-2(1H)-yl)prop-2-en-1-one], the inhibition at 10 µM amounted to 99% in test [1] and 90% in test [2].

For the molecule `O=C(c1ccc2c(c1)CN(S(=O)(=O)c1cccc3c(Cl)cccc13)CC2)N1CCC2(CC1)CCN(c1ccncc1)CC2` [Compound G-62, (2-(5-Chloronaphthalin-1-ylsulfonyl)-1,2,3,4-tetrahydroisoquinolin-7-yl)(9-(pyridin-4-yl)-3,9-diazaspiro[5.5]undecan-3-yl)methanone], the results for the inhibition at 10 µM in test [1] and in test [2] were 44% and 78%, respectively.

As for `COc1cc(C)c(S(=O)(=O)N2CCCc3ccc(CC(=O)N4CCC5(CC4)CCN(c4ccncc4)CC5)cc32)c(C)c1` [Compound G-25, 2-(1-(4-Methoxy-2,6-dimethylphenylsulfonyl)-1,2,3,4-tetrahydroquinolin-7-yl)-1-(9-(pyridin-4-yl)-3,9-diazaspiro[5.5]undecan-3-yl)ethanone], the inhibition at 10 µM in test [1] is 100%; in test [2] it was 98%.

Turning to `O=C(Cc1ccc2c(c1)N(S(=O)(=O)c1ccc(OC(F)(F)F)cc1Cl)CCC2)N1CCC2(CC1)CCN(c1ccncc1)CC2` [Compound G-35, 2-(1-(2-Chloro-4-(trifluoromethoxy)phenylsulfonyl)-1,2,3,4-tetrahydroquinolin-7-yl)-1-(9-(pyridin-4-yl)-3,9-diazaspiro[5.5]undecan-3-yl)ethanone], the inhibition at 10 µM in test [1] came out at 79%; in test [2], 101%.

Consider `COc1cc(C)c(S(=O)(=O)N2CCc3ccc(CC(=O)N4CCC5(CC4)CCN(c4ccncc4)CC5)cc3C2)c(C)c1` [Compound G-39, 2-(2-(4-Methoxy-2,6-dimethylphenylsulfonyl)-1,2,3,4-tetrahydroisoquinolin-7-yl)-1-(9-(pyridin-4-yl)-3,9-diazaspiro[5.5]undecan-3-yl)ethanone], for which the inhibition at 10 µM in test [1] came to 99%; in test [2], 89%.

Regarding `COc1cc(C)c(S(=O)(=O)N2CCCc3ccc(CC(=O)N4CCC5(CCC(N6CC(F)(F)C6)CC5)CC4)cc32)c(C)c1` [Compound G-34, 1-(9-(3,3-Difluoroazetidin-1-yl)-3-azaspiro[5.5]undecan-3-yl)-2-(1-(4-methoxy-2,6-dimethylphenylsulfonyl)-1,2,3,4-tetrahydroquinolin-7-yl)ethanone], the inhibition at 10 µM in test [1] is 18%; in test [2], 86%.

Take `O=C(Cc1ccc2c(c1)N(S(=O)(=O)c1cccc3ccccc13)CCC2)N1CCC2(CCC(N3CCC3)CC2)CC1` [Compound G-54, 1-(9-(Azetidin-1-yl)-3-azaspiro[5.5]undecan-3-yl)-2-(1-(naphthalin-1-ylsulfonyl)-1,2,3,4-tetrahydroquinolin-7-yl)ethanone]: the inhibition at 10 µM in test [1] is 57%; in test [2] it was 55%.

Consider `COc1cc(C)c(S(=O)(=O)N2CCn3cc(C(=O)N4CCC5(CC4)CCN(c4ccncc4)CC5)nc3C2)c(C)c1` [Compound G-40, (7-(4-Methoxy-2,6-dimethylphenylsulfonyl)-5,6,7,8-tetrahydroimidazo[1,2-a]pyrazin-2-yl)(9-(pyridin-4-yl)-3,9-diazaspiro[5.5]undecan-3-yl)methanone], for which the inhibition at 10 µM in test [1] was 100%; in test [2] it was 102%.

For `COc1cc(C)c(S(=O)(=O)N2CCCc3ccc(CC(=O)N4CCC5(CC4)CCN(C4CCC4)C5)cc32)c(C)c1` [Compound G-10, 1-(2-Cyclobutyl-2,8-diazaspiro[4.5]decan-8-yl)-2-(1-(4-methoxy-2,6-dimethylphenylsulfonyl)-1,2,3,4-tetrahydroquinolin-7-yl)ethanone], the inhibition at 10 µM in test [1] is 97%; in test [2], 80%.

As for `O=C(c1ccc2c(c1)CN(S(=O)(=O)c1ccc(Cl)c3ccccc13)CC2)N1CCC2(CC1)CCN(c1ccncc1)CC2` [Compound G-50, (2-(4-Chloronaphthalin-1-ylsulfonyl)-1,2,3,4-tetrahydroisoquinolin-7-yl)(9-(pyridin-4-yl)-3,9-diazaspiro[5.5]undecan-3-yl)methanone], the inhibition at 10 µM in test [1] was found to be 69%; in test [2], 91%.

As to `COc1cc(C)c(S(=O)(=O)N2CCCc3ccc(CC(=O)N4CCC5(CC4)CCN(c4ccncc4)C5)cc32)c(C)c1` [Compound G-09, 2-(1-(4-Methoxy-2,6-dimethylphenylsulfonyl)-1,2,3,4-tetrahydroquinolin-7-yl)-1-(2-(pyridin-4-yl)-2,8-diazaspiro[4.5]decan-8-yl)ethanone], the inhibition at 10 µM in test [1] and in test [2] was 96% throughout.

As to `COc1cc(C)c(S(=O)(=O)N2CCCc3ccc(CC(=O)N4CCC5(CCC(N6CCC6)CC5)CC4)cc32)c(C)c1` [Compound G-32, 1-(9-(Azetidin-1-yl)-3-azaspiro[5.5]undecan-3-yl)-2-(1-(4-methoxy-2,6-dimethylphenylsulfonyl)-1,2,3,4-tetrahydroquinolin-7-yl)ethanone], the inhibition at 10 µM in test [1] was determined as 91%; in test [2], 102%.

As for `Cc1cccc(Cl)c1S(=O)(=O)N1CCc2cccc(C(=O)N3CCC4(CC3)CCN(c3ccncc3)CC4)c2C1` [Compound G-37, (2-(2-Chloro-6-methylphenylsulfonyl)-1,2,3,4-tetrahydroisoquinolin-8-yl)(9-(pyridin-4-yl)-3,9-diazaspiro[5.5]undecan-3-yl)methanone], the inhibition at 10 µM in test [1] was found to be 99%; in test [2], 90%.

With `Cc1cccc(Cl)c1S(=O)(=O)N1Cc2ccc(C(=O)N3CCC4(CC3)CCN(c3ccncc3)CC4)cc2C1` [Compound G-68, [2-[(2-Chloro-6-methyl-phenyl)sulfonyl]-2,3-dihydro-1H-isoindol-5-yl]-(9-pyridin-4-yl-3,9-diazaspiro[5.5]undecan-3-yl)-methanone], the inhibition at 10 µM amounted to 90% in test [1] and 81% in test [2].
